Assay results taken from patent publication US11964950B2, “Arylamide derivative having antitumor activity” (priority 2020, dated 2024).
pIC50: −log10 of the molar value.

Assays:
[1] = tested on: A549 human lung cancer cells; test: Cell proliferation-inhibiting activity, A549 (CellTiter-Glo, ATP in viable cells); format: cell-based; conditions: A549, 96 h, Table 3, 4 days culture
Procedure: (§1) The cell proliferation-inhibiting activity of the compounds listed in Table 3 below was evaluated by measuring the amount of ATP in viable cells as described below.
(§2) The test compound was serially diluted with DMSO and then diluted 25-fold with Ca^2+, Mg^2+-free phosphate-buffered saline, and was then dispensed into a 96-well plate at 5 μL per well. A cell suspension containing the below indicated concentration of A549, Calu-6 or NCI-H2122 human lung cancer cells (all obtained from ATCC) was prepared using the below indicated medium with the addition of 10% fetal bovine serum (Sigma). The cell suspension was dispensed into the test compound-added plate at 95 μL per well and cultured in a 5% carbon dioxide gas incubator at 37° C. After 4 days, 80 μL of CellTiter-Glo (registered trademark) (Promega Corp.) was added to each well and the bioluminescence was measured with a fluorescent plate reader.
A549: Dulbecco's Modified Eagle's Medium (Sigma); 2000 cells/95 μL

[2] = tested on: Calu-6 human lung cancer cells; test: Cell proliferation-inhibiting activity, Calu-6 (CellTiter-Glo, ATP in viable cells); format: cell-based; conditions: Calu-6, 96 h, Table 3, 4 days culture
Procedure: as §1, §2
Calu-6: Eagle's Minimum Essential Medium (Sigma); 4000 cells/95 μL

[3] = tested on: NCI-H2122 human lung cancer cells; test: Cell proliferation-inhibiting activity, NCI-H2122 (CellTiter-Glo, ATP in viable cells); format: cell-based; conditions: NCI-H2122, 96 h, Table 3, 4 days culture
Procedure: as §1, §2

[4] = Human liver microsome stability; format: in vitro ADME; conditions: NADPH, 37° C.; for microsomal CLint at 0.99 µM: human liver microsomes (XENOTECH), pH 7.4, hepatic intrinsic clearance; for CLint: hepatic intrinsic clearance, human liver microsomes
Procedure: There were dispensed 400 μL of 1 mg/mL human liver microsomes (XENOTECH)/0.1 M potassium phosphate buffer (pH 7.4) into each well of a 96-well plate. A DMSO solution (4 μL) of 200 μM test compound was then added, and incubation was conducted until reaching 37° C. To this reaction mixture (200 μL) there was added a solution (200 μL) containing 2 mM NADPH (ORIENTAL YEAST)/0.1 M potassium phosphate buffer (pH 7.4) that had been incubated at 37° C. At 0 min, 5 min, 15 min or 30 min after addition, the reaction mixture (50 μL) was added to acetonitrile (100 μL) to stop the metabolic reaction. After the metabolic reaction was stopped, a 1 μM warfarin aqueous solution (50 μL) was added to each reaction mixture as an internal standard. The reaction mixture was filtered and analyzed by LC/MS/MS (LC: NEXERA by Shimadzu; MS: 4000Q trap by ABSciex; column: Ascentis Express C18 HPLC column (5 cm×2.1 mm, 2.7 μm); ionization method: electrospray ionization). The percent remaining relative to the amount of test compound at 0 min was calculated from the obtained peak area ratio of the test compound to internal standard. The elimination rate constant (ke) was calculated from the incubation time and percent remaining using the primary elimination rate equation, and the hepatic intrinsic clearance (CLint) was calculated using the formula shown below. CLint (μL/min/mg)=ke (min^−1)/human liver microsome concentration (mg protein/μL)

| CLint [4] | SMILES | pIC50 [1] | pIC50 [2] | pIC50 [3] | microsomal CLint at 0.99 µM [4] |
| --- | --- | --- | --- | --- | --- |
|  | NC(=O)c1cc(Cc2ccnc(NS(=O)(=O)NC3CC3)c2F)c(F)cc1Nc1ccc(I)cc1F [1-3, 5-[[2-(Cyclopropylsulfamoylamino)-3-fluoropyridin-4-yl]methyl]-4-fluoro-2-(2-fluoro-4-iodoanilino)benzamide] | 7.49 | 6.92 | 7.68 |  |
|  | CS(=O)(=O)Nc1cccc(Cc2cc(C(N)=O)c(Nc3ccc(I)cc3F)c(F)c2F)c1F [E-13, 3,4-difluoro-2-(2-fluoro-4-iodoanilino)-5-[[2-fluoro-3-(methanesulfonamide)phenyl]methyl]benzamide] |  |  |  | 25 µL/min/mg |
|  | COCC1(NS(=O)(=O)Nc2nccc(Cc3cc(C(N)=O)c(Nc4ccc(I)cc4F)c(F)c3F)c2F)CC1 [A-16, 3,4-Difluoro-2-(2-fluoro-4-iodoanilino)-5-[[3-fluoro-2-[[1-(methoxymethyl)cyclopropyl]sulfamoylamino]pyridin-4-yl]methyl]benzamide] |  |  |  | 47 µL/min/mg |
|  | CNS(=O)(=O)Nc1nccc(Cc2cc(C(N)=O)c(Nc3ccc4sccc4c3F)c(F)c2F)c1F [H-3, 3,4-difluoro-2-[(4-fluoro-1-benzothiophen-5-yl)amino]-5-[[3-fluoro-2-(methylsulfamoylamino)pyridin-4-yl]methyl]benzamide] | 8.30 |  | 9.00 |  |
|  | CNS(=O)(=O)Nc1nccc(Cc2cc(C(=O)NC3CC3)c(Nc3ccc(I)cc3F)c(F)c2F)c1F [A-2, N-cyclopropyl-3,4-difluoro-2-(2-fluoro-4-iodoanilino)-5-[[3-fluoro-2-(methylsulfamoylamino)pyridin-4-yl]methyl]benzamide] | 9.00 | 8.70 | 10.00 |  |
|  | CCS(=O)(=O)Nc1cccc(Cc2cc(C(=O)NOC(C)(C)C)c(Nc3ccc(I)cc3F)n(C)c2=O)c1F [K-9, 5-[[3-(Ethylsulfonylamino)-2-fluorophenyl]methyl]-2-(2-fluoro-4-iodoanilino)-1-methyl-N-[(2-methylpropan-2-yl)oxy]-6-oxopyridine-3-carboxamide] |  |  |  | 185 µL/min/mg |
|  | CNS(=O)(=O)Nc1cccc(Cc2cc(C(=O)NC3CC3)c(Nc3ccc(C4CC4)cc3F)c(F)c2F)c1F [D-15, N-Cyclopropyl-2-(4-cyclopropyl-2-fluoroanilino)-3,4-difluoro-5-[[2-fluoro-3-(methylsulfamoylamino)phenyl]methyl]benzamide] |  | 6.93 | 7.96 |  |
|  | CCS(=O)(=O)Nc1nccc(Cn2cc(C(N)=O)c(Nc3ccc(I)cc3F)c(C)c2=O)c1F [P-2, 1-[[2-(ethylsulfonylamino)-3-fluoropyridin-4-yl]methyl]-4-(2-fluoro-4-iodoanilino)-5-methyl-6-oxopyridine-3-carboxamide] |  | 6.47 | 6.96 |  |
|  | CNS(=O)(=O)Nc1nccc(Cc2cc(C(=O)NC3CC3)c(Nc3ccc(C4CC4)cc3F)c(F)c2F)c1F [G-1, N-Cyclopropyl-2-(4-cyclopropyl-2-fluoroanilino)-3,4-difluoro-5-[[3-fluoro-2-(methylsulfamoylamino)pyridin-4-yl]methyl]benzamide] | 7.68 | 7.19 | 8.22 |  |
|  | CNS(=O)(=O)Nc1nccc(Cc2cc(C(N)=O)c(Nc3ccc(C4CC4)cc3F)n(C)c2=O)c1F [J-3, 2-(4-Cyclopropyl-2-fluoroanilino)-5-[[3-fluoro-2-(methylsulfamoylamino)pyridin-4-yl]methyl]-1-methyl-6-oxopyridine-3-carboxamide] | 6.07 | 6.01 | 6.91 |  |
| <1 µL/min/mg | CC1(NS(=O)(=O)Nc2nccc(Cc3cc(C(N)=O)c(Nc4ccc(I)cc4F)c(F)c3F)c2F)CC1 [A-23, 3,4-Difluoro-2-(2-fluoro-4-iodoanilino)-5-[[3-fluoro-2-[(1-methylcyclopropyl)sulfamoylamino]pyridin-4-yl]methyl]benzamide] |  |  |  |  |
| <1 µL/min/mg | CC1(S(=O)(=O)Nc2cccc(Cc3cc(C(N)=O)c(Nc4ccc(I)cc4F)c(F)c3F)c2F)CC1 [E-16, 3,4-Difluoro-2-(2-fluoro-4-iodoanilino)-5-[[2-fluoro-3-[(1-methylcyclopropyl)sulfonylamino]phenyl]methyl]benzamide] |  |  |  |  |
|  | CS(=O)(=O)Nc1cccc(Cc2cc(C(=O)NC3CC3)c(Nc3ccc(I)cc3F)c(F)c2F)c1F [E-25, N-Cyclopropyl-3,4-difluoro-2-(2-fluoro-4-iodoanilino)-5-[[2-fluoro-3-(methanesulfonamide)phenyl]methyl]benzamide] |  |  |  | 8 µL/min/mg |
| <1 µL/min/mg | CNS(=O)(=O)Nc1nccc(Cc2c(C)c3ccc(Oc4ncccn4)cc3oc2=O)c1F [Ref-5, 3-[[3-Fluoro-2-(methylsulfamoylamino)pyridin-4-yl]methyl]-4-methyl-7-pyrimidin-2-yloxychromen-2-one, reference compound] |  |  |  |  |
